Data published in the OPERA property sets (Mansouri et al. 2018).

| Structure (SMILES) | logP |
| --- | --- |
| Clc1cccc(Cl)c1-c1c(Cl)cccc1Cl | 5.94 |
| Clc1ccc(-c2ccc(Cl)c(Cl)c2)cc1Cl | 6.63 |
| Clc1cc(-c2cc(Cl)c(Cl)c(Cl)c2)cc(Cl)c1Cl | 7.41 |
| CCCCc1ccccc1 | 4.38 |
| COP(=S)(OC)Oc1cc(Cl)c(I)cc1Cl | 5.51 |
| CCc1ccc2c(c1)C(=O)c1ccccc1C2=O | 4.37 |
| ClC1=C(Cl)[C@]2(Cl)[C@H]3[C@H]([C@@H]4C=C[C@H]3C4)[C@@]1(Cl)C2(Cl)Cl (racemic) | 6.5 |
| Clc1c(Cl)c(Cl)c(-c2ccccc2)c(Cl)c1Cl | 6.75 |
| ClC1=C(Cl)[C@]2(Cl)[C@@H]3[C@@H]4C[C@@H]([C@H]5O[C@@H]45)[C@@H]3[C@@]1(Cl)C2(Cl)Cl (single isomer, unassigned) | 5.4 |
| CCCCC(CC)COC(=O)c1ccccc1C(=O)OCC(CC)CCCC (stereo not drawn) | 7.6 |
| Clc1cc(Cl)c(Cl)c(-c2c(Cl)c(Cl)cc(Cl)c2Cl)c1Cl | 7.73 |
| Clc1c(Cl)c(Cl)c(Cl)c(Cl)c1Cl | 5.73 |
| CCOP(=S)(OCC)Oc1cc(Cl)c(Br)cc1Cl | 6.15 |
